Assay results published in US9179674B2, “Macrocyclic picolinamide compounds with fungicidal activity” (DOW AGROSCIENCES LLC, priority 2013, dated 2015).
Like-named read-outs stand apart in the source and are kept apart here.

Experiments:
[1] = system: Mycosphaerella graminicola; Anamorph: Septoria tritici; assay: Leaf Blotch of Wheat fungicidal activity (SEPTTR); assay type: in vivo; settings: Zymoseptoria tritici; for pest or weed control at 100 ppm: rate 100 ppm; for pest or weed control at 121.5 g/ha: rate 121.5 g/H
Experimental: Evaluation of Fungicidal Activity: Leaf Blotch of Wheat (Mycosphaerella graminicola; Anamorph: Septoria tritici; Bayer code […]) Technical grades of materials were dissolved in acetone, which were then mixed with nine volumes of water containing 110 ppm Triton X-100. The fungicide solutions were applied onto wheat seedlings using an automated booth sprayer to run-off. All sprayed plants were allowed to air dry prior to further handling. All fungicides were evaluated using the aforementioned method for their activity vs. all target diseases. Wheat leaf blotch and brown rust activity were also evaluated using track spray applications, in which case the fungicides were formulated as EC formulations, containing 0.1% Trycol 5941 in the spray solutions. Wheat plants (variety Yuma) were grown from seed in a greenhouse in 50% mineral soil/50% soil-less Metro mix until the first leaf was fully emerged, with 7-10 seedlings per pot. These plants were inoculated with an aqueous spore suspension of Septoria tritici either prior to or after fungicide treatments. After inoculation the plants were kept in 100% relative humidity (one day in a dark dew chamber followed by two to three days in a lighted dew chamber at 20° C.) to permit spores to germinate and infect the leaf. The plants were then transferred to a greenhouse set at 20° C. for disease to develop. When disease symptoms were fully expressed on the 1st leaves of untreated plants, infection levels were assessed on a scale of 0 to 100 percent disease severity. Percent disease control was calculated using the ratio of disease severity on treated plants relative to untreated plants.

[2] = system: Puccinia triticina; assay: Wheat Brown Rust fungicidal activity (PUCCRT); assay type: in vivo; settings: Puccinia triticina; for pest or weed control at 100 ppm: rate 100 ppm; for pest or weed control at 121.5 g/ha: rate 121.5 g/H
Experimental: Technical grades of materials were dissolved in acetone, which were then mixed with nine volumes of water containing 110 ppm Triton X-100. The fungicide solutions were applied onto wheat seedlings using an automated booth sprayer to run-off. All sprayed plants were allowed to air dry prior to further handling. All fungicides were evaluated using the aforementioned method for their activity vs. all target diseases. Wheat leaf blotch and brown rust activity were also evaluated using track spray applications, in which case the fungicides were formulated as EC formulations, containing 0.1% Trycol 5941 in the spray solutions. Wheat plants (variety Yuma) were grown from seed in a greenhouse in 50% mineral soil/50% soil-less Metro mix until the first leaf was fully emerged, with 7-10 seedlings per pot. These plants were inoculated with an aqueous spore suspension of Septoria tritici either prior to or after fungicide treatments. After inoculation the plants were kept in 100% relative humidity (one day in a dark dew chamber followed by two to three days in a lighted dew chamber at 20° C.) to permit spores to germinate and infect the leaf. The plants were then transferred to a greenhouse set at 20° C. for disease to develop. When disease symptoms were fully expressed on the 1st leaves of untreated plants, infection levels were assessed on a scale of 0 to 100 percent disease severity. Percent disease control was calculated using the ratio of disease severity on treated plants relative to untreated plants. Evaluation of Fungicidal Activity: Wheat Brown Rust (Puccinia triticina; Synonym: Puccinia recondite f sp. tritici; Bayer code PUCCRT) Wheat plants (variety Yuma) were grown from seed in a greenhouse in 50% mineral soil/50% soil-less Metro mix until the first leaf was fully emerged, with 7-10 seedlings per pot. These plants were inoculated with an aqueous spore suspension of Puccinia triticina either prior to or after fungicide treatments. After inoculation the plants were kept in a dark dew room at 22° C. with 100% relative humidity overnight to permit spores to germinate and infect the leaf. The plants were then transferred to a greenhouse set at 24° C. for disease to develop. Fungicide formulation, application and disease assessment followed the procedures as described in the Example A.

[3] = 24 h, 1 Day Protectant, read-out: Disease control SEPTTR 1DP
[4] = 72 h, 3 Day Curative, read-out: Disease control SEPTTR 3DC
[5] = 24 h, 1 Day Protectant, read-out: Disease control PUCCRT 1DP
[6] = 72 h, 3 Day Curative, read-out: Disease control PUCCRT 3DC

| Structure (SMILES) | pest or weed control at 100 ppm [1, 3] [%] | pest or weed control at 100 ppm [1, 4] [%] | pest or weed control at 100 ppm [2, 5] [%] | pest or weed control at 100 ppm [2, 6] [%] | pest or weed control at 121.5 g/ha [1, 3] [%] | pest or weed control at 121.5 g/ha [1, 4] [%] | pest or weed control at 121.5 g/ha [2, 5] [%] | pest or weed control at 121.5 g/ha [2, 6] [%] |
| --- | --- | --- | --- | --- | --- | --- | --- | --- |
| COc1ccnc(C(=O)N[C@H]2COC[C@H](Cc3ccc(C(F)(F)F)cc3)[C@@H](OC(=O)C3CC3)[C@H](C)OC2=O)c1O [Compound F26] | 80 to 100 | 0 to 80 | 0 to 80 |  |  |  |  |  |
| COc1ccnc(C(=O)N[C@H]2COC[C@H](Cc3ccc(C)cc3)[C@@H](OC(=O)C3CC3)[C@H](C)OC2=O)c1O [Compound F22] |  | 0 to 80 | 0 to 80 | 0 to 80 |  |  |  |  |
| COc1ccnc(C(=O)N[C@H]2COC[C@H](CCc3ccccc3)[C@@H](Oc3ccc(C)cc3)[C@H](C)OC2=O)c1O [Compound F16] | 80 to 100 | 0 to 80 | 80 to 100 | 0 to 80 |  |  |  |  |
| COc1ccnc(C(=O)N[C@H]2COC[C@H](CCC(C)C)[C@@H](OC3CCCC3)[C@H](C)OC2=O)c1O [Compound F39] | 80 to 100 | 80 to 100 | 80 to 100 | 80 to 100 |  |  |  |  |
| CCCCCO[C@@H]1[C@@H](CCc2ccccc2)COC[C@H](NC(=O)c2nccc(OC)c2OC(C)=O)C(=O)O[C@H]1C [Compound F55] | 80 to 100 | 80 to 100 | 80 to 100 | 80 to 100 |  |  |  |  |
| CCCO[C@@H]1[C@@H](Cc2ccc(C(F)(F)F)cc2)COC[C@H](NC(=O)c2nccc(OC)c2O)C(=O)O[C@H]1C [Compound F29] | 80 to 100 | 80 to 100 | 80 to 100 | 0 to 80 |  |  |  |  |
| CCCO[C@@H]1[C@@H](CCC(C)C)COC[C@H](NC(=O)c2nccc(OC)c2O)C(=O)O[C@H]1C [Compound F38] | 80 to 100 | 80 to 100 | 80 to 100 | 80 to 100 |  |  |  |  |
| COc1ccnc(C(=O)N[C@H]2COC[C@H](Cc3ccc(F)cc3)[C@@H](Oc3ccccc3)[C@H](C)OC2=O)c1OC(C)=O [Compound F59] | 80 to 100 | 80 to 100 | 80 to 100 | 80 to 100 | 80 to 100 | 80 to 100 | 80 to 100 | 0 to 80 |
| COc1ccnc(C(=O)N[C@H]2COC[C@H](Cc3ccc(C(F)(F)F)cc3)[C@@H](OC3CCCC3)[C@H](C)OC2=O)c1O [Compound F28] | 80 to 100 | 0 to 80 | 80 to 100 | 0 to 80 |  |  |  |  |
| COc1ccnc(C(=O)N[C@H]2COC[C@H](Cc3ccc(C)cc3)[C@@H](Oc3ccccc3)[C@H](C)OC2=O)c1OC(C)=O [Compound F63] | 80 to 100 | 80 to 100 | 80 to 100 | 80 to 100 | 80 to 100 | 80 to 100 | 80 to 100 | 0 to 80 |
